From patent US8188003B2, “Method of inducing virus tolerance of plants” (BASF Aktiengesellschaft, priority 2005, dated 2012)

Experiments:
TMV [1] = test: Use example 3: leaf halves infiltrated, TMV infection 1 day after treatment, lesion area versus control; assay type: in vivo, tobacco plants (cultivar Xanthi-nc); conditions: 1 mM in 1% aqueous ethanol, evaluated after further 5 days
Description: (§1) Leaf halves of approx. 5-weeks-old tobacco plants (cultivar Xanthi-nc) were infiltrated with 1 mM active ingredient solution in 1% aqueous ethanol; the leaf halves of the controls were infiltrated with 1% aqueous ethanol.
Infection with TMV was carried our 1 day after treatment; the plants were evaluated after further 5 days. The data shown are the averages of the leaf areas which had died owing to viral attack (lesions) at the infection site on leaf halves treated with active ingredient or untreated leaf halves (controls):
(§2) Area of the lesions in comparison with the control: […]

TMV [2] = test: Use example 5: spraying the leaves with active ingredient solutions, TMV infection 5 days after treatment, lesion area versus control; assay type: in vivo, tobacco plants (cultivar Xanthi-nc); conditions: 2 mM with universal wetter 1:1 (w/w), sprayed, evaluated after further 4 days
Description: In each case 2 mM active ingredient were dissolved in water with the aid of a universal wetter in the ratio 1:1 (w/w) and sprayed onto the leaf halves of 5-week-old tobacco plants (cultivar Xanthi-nc) (leaf halves of the controls were sprayed with dissolved wetter only).
Infection with TMV was carried out 5 days after the treatment, and the plants were evaluated after further 4 days. The data shown are the averages of the leaf areas which had died owing to viral attack (lesions) at the infection site on leaf halves treated with active ingredient or untreated leaf halves (controls):
as §2

TMV [3] = test: Use example 4: leaf halves infiltrated, TMV infection 2 days after treatment, lesion area versus control; assay type: in vivo, tobacco plants (cultivar Xanthi-nc); conditions: 1 mM in 1% aqueous ethanol, evaluated after further 5 days
Description: as §1
The procedure of use example 3 was followed, but infection was carried out 2 days after the treatment and the plants were evaluated after further 5 days.
as §2

[4] = tested on: tobacco mosaic virus (TMV, strain U1); test: Use example 1: active ingredient solution injected into tobacco leaves, TMV infection, lesion diameter; assay type: in vivo, tobacco plants (Nicotinia tabacum cv. Xanthi-nc); conditions: injected into leaf, infection 1 day after pretreatment, after 7 days, water control 3.55 mm
Description: (§3) For the experiments, tobacco plants (Nicotinia tabacum cv. Xanthi-nc) were grown at 25° C., an atmospheric humidity of 59% and a daily photoperiod of 16 hours (150-200 μM quanta/s^−1/m^−2) for 4 to 5 weeks in potting compost (standard soil type ED 73). Some of the plants were fed once per week by adding a commercial house-plant fertilizer (10% total nitrogen, 9% phosphate, 7% potash) to the irrigation water at the recommended rate.
(§4) The formulated active ingredient used took the form of water-dispersible granules with an active ingredient content of 20%. The concentrations used in the experiments (0.01-10 mM) are based on the active ingredient content. To prevent distribution of the active ingredient in the entire plant, the stalks of plants where a leaf had been infiltrated were removed above the treated leaf, using a sterile surgical blade.
(§5) After the application of the active ingredient, and also after infection with the virus at a later time, the plants were left to stand in the growth cabinet.
(§6) The various pretreated tobacco plants were infected with tobacco mosaic virus (TMV, strain U1). […] Five to 7 days post-infection, the diameter of 10 to 20 lesions on the leaves was determined. […]
After 7 days, the diameter of the lesions on the leaves caused by TMV was determined in millimeters [mm].

TMV [5] = test: Use example 6: plant growth and tolerance to viral infection of TMV-inoculated tomato plants after spray treatment; assay type: in vivo, Tomato plants (cultivar Gaucho)
Description: The experiments were performed in greenhouse of under appropriate growing conditions for tomatoes. Tomato plants (cultivar Gaucho) were grown in pots until development of the first two true leaves. Then the plantlets were sprayed with different concentrations of formulated Pyraclostrobin (compound I-5; commercial fungicide Cabrio Top® of BASF Aktiengesellschaft). These treatments were done either 120 hours before or following inoculation of the plantlets with TMV, representing protective and curative situation. The treatments were run with 5 replicates, each containing 3 plantlets. 30 days after last treatment the plants were analyzed for visual plant growth (altitude and dry mass) and chlorophyll content (photometric measurement of extracts). Also the virus titre was determined (ELISA).
Same letters indicate non significant differences (Tukey; P≦0.05).

[6] = tested on: tobacco mosaic virus (TMV, strain U1); test: Use example 2: one leaf half infiltrated with active ingredient solution, TMV infection, lesion diameter; assay type: in vivo, tobacco plants (Nicotinia tabacum cv. Xanthi-nc); conditions: after 5 days
Description: as §3, §4, §5, §6
After 5 days, the diameter of the lesions on the leaves caused by TMV was determined in millimeters [mm].

Compound	Area of the lesions in comparison with the control, Area in percent (TMV [1]) [%]	Area of the lesions in comparison with the control, Area in percent (TMV [2]) [%]	Area of the lesions in comparison with the control, Area In percent (TMV [3]) [%]	diameter of the lesions on the leaves caused by TMV (average) ([4]; 1 mM) [mm]	diameter of the lesions on the leaves caused by TMV (average) ([4]; 2.5 mM) [mm]	effect compared with untreated plants (TMV [5]; Curative treatment)	effect on growth inhibition and loss of leaf chlorophyll caused by TMV infection (TMV [5]; protective treatment)	diameter of the lesions on the leaves caused by TMV (average), treated leaf zones ([6]; 0.5 mM, water control plants 3.2 mm) [mm]	diameter of the lesions on the leaves caused by TMV (average), treated leaf zones ([6]; 1 mM, water control plants 3.35 mm) [mm]
CNC(=O)/C(=N/OC)c1ccccc1CO/N=C(C)/C(=N/OC)C(/C)=N/OC [Compound V-16, orysastrobin]	63.8								
CNC(=O)/C(=N/OC)c1ccccc1COc1cc(C)ccc1C [II-3, dimoxystrobin]	68.1	49.6	62.7						
CO/C=C(/C(=O)OC)c1ccccc1Oc1cc(Oc2ccccc2C#N)ncn1 [VII-1, azoxystrobin]	62.1	68.3	70.4						
pyraclostrobin [Compound I-5]	53.0			2.35	1.8	no advantage compared with untreated plants	can prevent growth inhibition and loss of leaf chlorophyll caused by TMV infection	2.75	2.85
